Reference: patent US20240207302A1, “ANTIVIRAL COMPOUNDS, METHODS FOR THE MANUFACTURING OF COMPOUNDS, ANTIVIRAL PHARMACEUTICAL COMPOSITION, USE OF THE COMPOUNDS AND METHOD FOR THE ORAL TREATMENT OF CORONAVIRUS INFECTION AND RELATED DISEASES THEREOF” (priority 2021, published 2024)

Key:
[1] = molecular target: human ERG potassium channel (ether-a-gogo-related gene, Kv11.1) (Homo sapiens, UniProt Q12809); assay: hERG FLIPR Potassium assay in HEK293 cells; details: up to 300 μM
[2] = Pharmacokinetics of MB-905 in plasma of mice
Excerpt: FIG. 8A to 8F. […] The number of animals is shown in each figure legends. The vertical lines represent the mean±the standard error deviation.
All animals were maintained under SPF (Specific Pathogen Frec) animal conditions and were obtained from CIEnP facility, whose breeding colonies were purchased from Charles River Laboratories (USA). […] The samples collected from each animal and at each collection time were processed and analyzed individually. For the analysis of plasma and lung, UPLC-MS/MS equipment was used, whose system consists of a Xevo TQS mass spectrometer with a triple-quadrupole mass analyzer, from Waters. The mass spectrometer is coupled to a high-performance liquid chromatograph (Acquity H-Class). The acquisition and treatment of the data were performed with the MassLynx software. […] The calculation of bioavailability was performed using the following equation: F (%)=[(Intravenous dose×oral AUC)/(Oral dose×Intravenous AUC)]×100.

[3] = system: TNF-α and IL-6; assay: TNF-α and IL-6 levels in supernatant of SARS-COV-2-infected human primary monocytes; format: cell-based; details: 24 h
Experimental: FIG. 5A, 5B and 5C. The compounds impair SARS-COV-2 RNA synthesis and SARS-COV-2-induced release of inflammatory mediators in human primary monocytes.
Human primary monocytes were obtained after 3 h of plastic adherence of peripheral blood mononuclear cells (PBMCs). PBMCs were isolated from healthy donors by density gradient centrifugation (Ficoll-Paque, GE Healthcare). PBMCs (2.0×10^6 cells) were plated onto 48-well plates (NalgeNunc) in RPMI-1640 without serum for 2 to 4 h. Non-adherent cells were removed, and the remaining monocytes were maintained in DMEM with 5% human serum (HS; Millipore) and penicillin/streptomycin. Monocytes were infected at MOI of 0.1. After 1 h inoculation period, cells were washed with phosphate saline buffer (PBS) to remove unbounded viruses and treated with 1 μM of the indicated compounds. After 24 h after infection, cell monolayers werc lysed total viral RNA was extracted, quantitative RT-PCR was performed, to detect the SARS-COV-2 and the housekeeping gene RNAse P.

[4] = system: SARS-COV-2; assay: SARS-COV-2 viral RNA synthesis in Vero cells (real time RT-PCR); format: cell-based; details: Severe acute respiratory syndrome coronavirus 2; Vero (MOI 0.01 24 h); read-out: EC50
[5] = both, CD1, mouse, plasma, iv, 3 mg/kg
[6] = both, CD1, mouse, plasma, po, 30 mg/kg

Chain of human ERG potassium channel (ether-a-gogo-related gene, Kv11.1) (Q12809 whole entry): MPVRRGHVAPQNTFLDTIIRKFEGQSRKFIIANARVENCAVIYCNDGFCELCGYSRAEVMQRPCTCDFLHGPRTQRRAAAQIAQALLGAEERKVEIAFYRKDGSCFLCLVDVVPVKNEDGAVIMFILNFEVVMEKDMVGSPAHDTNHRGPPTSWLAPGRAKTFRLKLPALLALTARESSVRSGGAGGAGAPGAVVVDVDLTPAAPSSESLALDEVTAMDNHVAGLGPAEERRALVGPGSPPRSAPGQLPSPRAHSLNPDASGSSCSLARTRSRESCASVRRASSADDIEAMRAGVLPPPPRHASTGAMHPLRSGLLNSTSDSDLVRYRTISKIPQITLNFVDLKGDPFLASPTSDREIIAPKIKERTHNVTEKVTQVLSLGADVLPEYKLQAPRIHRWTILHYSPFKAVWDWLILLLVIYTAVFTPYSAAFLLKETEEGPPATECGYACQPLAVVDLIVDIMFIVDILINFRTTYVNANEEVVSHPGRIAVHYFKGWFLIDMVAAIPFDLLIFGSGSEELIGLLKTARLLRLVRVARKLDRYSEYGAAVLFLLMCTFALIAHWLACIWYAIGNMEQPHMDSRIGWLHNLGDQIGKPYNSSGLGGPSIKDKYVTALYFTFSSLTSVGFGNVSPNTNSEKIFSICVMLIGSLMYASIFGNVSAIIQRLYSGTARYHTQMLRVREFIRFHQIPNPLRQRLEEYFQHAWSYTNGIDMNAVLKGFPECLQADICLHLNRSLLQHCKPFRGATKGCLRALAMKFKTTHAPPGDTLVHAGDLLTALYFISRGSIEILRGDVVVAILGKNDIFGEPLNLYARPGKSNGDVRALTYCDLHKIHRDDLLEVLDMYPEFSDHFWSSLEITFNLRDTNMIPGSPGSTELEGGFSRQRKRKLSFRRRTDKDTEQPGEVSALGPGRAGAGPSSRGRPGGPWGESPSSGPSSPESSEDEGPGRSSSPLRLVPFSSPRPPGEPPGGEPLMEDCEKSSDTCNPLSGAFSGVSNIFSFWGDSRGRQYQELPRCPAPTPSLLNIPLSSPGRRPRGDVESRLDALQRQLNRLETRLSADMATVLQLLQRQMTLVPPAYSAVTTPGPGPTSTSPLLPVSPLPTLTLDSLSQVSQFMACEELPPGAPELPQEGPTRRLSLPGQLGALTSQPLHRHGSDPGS

Which “inhibition of potassium permeation through the hERG channel” value [1] does the source give for c1coc(CNc2ncnc3[nH]cnc23)c1 [MB-905, kinetin] here?
Its value is “about 20%”.

And the Cmax [2, 5]?
Its Cmax is 135 ng/mL.

What about the Vd [2, 5] of the same compound?
Its Vd is 19.4 L/kg.

And the AUC(0-t) [2, 6]?
Its AUC(0-t) is 366 ng·h/mL.

What about the Cmax [2, 6] of the same compound?
The Cmax was 570 ng/mL.

What about the half-life [2, 6] of the same compound?
The half-life was 66 min.

What about the Cmax ([2]; both, CD1, mouse, plasma, po, 550 mg/kg) of the same compound?
Its Cmax is 1050 ng/mL.

And the AUCall ([2]; mice plasma, 3 mg/kg (i.v.))?
Its AUCall is 66.41 ng·h/mL.

And the CL ([2]; mice plasma, 3 mg/kg (i.v.))?
Its CL is 918.38 mL/min/kg.

And the Cmax ([2]; mice plasma, 3 mg/kg (i.v.))?
The Cmax was 155.16 ng/mL.

What about the F ([2]; mice plasma, 3 mg/kg (i.v.)) of the same compound?
The F was 100%.

What about the Ke ([2]; mice plasma, 3 mg/kg (i.v.)) of the same compound?
Its Ke is 3.09 h⁻¹.

And the T1/2 ([2]; mice plasma, 3 mg/kg (i.v.))?
The T1/2 was 13.2 min.

What about the Tmax ([2]; mice plasma, 3 mg/kg (i.v.)) of the same compound?
Its Tmax is 4.98 min.

What about the Vz ([2]; mice plasma, 3 mg/kg (i.v.)) of the same compound?
The Vz was 19.04 L/kg.

What about the AUClast ([2]; mice plasma, 3 mg/kg (i.v.), 3 mg/kg) of the same compound?
The AUClast was 55.58 ng·h/mL.

And the CL ([2]; mice plasma, 30 mg/kg (v.o.))?
The CL was 1060.15 mL/min/kg.

And the Ke ([2]; mice plasma, 30 mg/kg (v.o.))?
Its Ke is 0.62 h⁻¹.

What about the Vz ([2]; mice plasma, 30 mg/kg (v.o.)) of the same compound?
The Vz was 102.21 L/kg.

And the F ([2]; mice plasma, 30 mg/kg (v.o.), 30 mg/kg)?
The F was 53,5%.

What about the Ke ([2]; mice plasma, 550 mg/kg (v.o.)) of the same compound?
Its Ke is 0.25 h⁻¹.

And the F ([2]; mice plasma, 550 mg/kg (v.o.), 550 mg/kg)?
The F was 36.1%.

And the “SARS-CoV-2-induced enhancement of IL-6 levels in culture supernatant” value [3]?
The value was “reduced”.

What about the “SARS-CoV-2-induced enhancement of TNF-α levels in culture supernatant” value [3] of the same compound?
Its value is “reduced”.

What about the EC50 [4] of the same compound?
The EC50 was 5 µM.
